Our source for the melting point values is US6344562B1, “Thiazole derivatives” (Hoffmann-La Roche Inc., priority 1998, dated 2002).

Molecules are shown by their SMILES. Structures can show the parent of a compound that is named as a salt.

As to `O=C(O)CCCC(=O)CNC(=O)c1csc(NC(=O)NCc2ccccn2)n1` (as salt: hydrochloride) [Example 150, 5-oxo-6-{[2-(3-pyridin-2-ylmethyl-ureido)-thiazole-4-carbonyl]-amino}-hexanoic acid], the melting point was found to be 199 °C.

On to `N=C(N)Nc1nc(C(=O)NCC(=O)NC(CC(=O)O)c2cccnc2)cs1` (racemic) [Example 81, (RS)-3-{2-[(2-guanidino-thiazole-4-carbonyl)-amino]-acetylamino}-3-pyridin-3-yl-propionic acid], for which the melting point stood at 186 °C.

Take `CC(C)(C)OC(=O)N[C@H](Cc1ccc(NC(=O)c2csc(NC(=O)NCc3ccccc3)n2)cc1)C(=O)O` [Example 166, (R)-3-[4-[[2-(3-benzyl-ureido)-thiazole-4-carbonyl]-amino]-phenyl]-2-tert-butoxycarbonylamino-propionic acid]: the melting point worked out at 232 °C.

Consider `O=C(O)C[C@H](NC(=O)CNC(=O)c1csc(NC(=O)NCc2ccccn2)n1)C(=O)NCc1ccccn1` [Example 168, (S)-N-pyridin-2-ylmethyl-3-(2-{[2-(3-pyridin-2-ylmethyl-ureido)-thiazole-4-carbonyl]-amino}-acetylamino)-succinamic acid], for which the melting point turned out to be 164 °C.

`CC(=O)O.Cc1nc(N=C2NCCCN2)sc1C(=O)NCCCCC(CC(=O)O)c1ccccc1.Cl` (racemic) registered a melting point of 60 to 63 °C.

Molecule `N=C(N)Nc1nc(C(=O)Nc2cccc(C(=O)NC(CC(=O)O)c3ccccc3)c2)cs1` (racemic) [Example 19, (RS)-3-{3-[(2-guanidino-thiazole-4-carbonyl)-amino]-benzoylamino}-3-phenyl-propionic acid] displayed a melting point of 235 °C.

`CC(C)(C)OC(=O)C[C@H](NC(=O)CNC(=O)c1csc(NC(=O)NCc2ccccc2)n1)C(=O)Nc1ccccc1C(=O)OC(C)(C)C` [Example 135, tert-butyl (S)-2-[2-[2-[[2-(3-benzyl-ureido)-thiazole-4-carbonyl]-amino]-acetylamino]-3-tert-butoxycarbonyl-propionylamino]-benzoate] returned a melting point of 116 °C.

On to `CCOC(=O)CC(NC(=O)c1ccc(OC)c(NC(=O)c2sc(NC(=N)N)nc2C)c1)c1ccccc1` (racemic) [Example 78, ethyl (RS)-3-{3-[(2-guanidino-4-methyl-thiazole-5-carbonyl)-amino]-4-methoxy-benzoylamino}-3-phenyl-propionate], for which the melting point is 123 to 126 °C.

Molecule `O=C(O)CCCCCNC(=O)c1csc(NC(=O)NCc2ccccc2)n1` [Example 138, 6-{[2-(3-benzyl-ureido)-thiazole-4-carbonyl]-amino}-hexanoic acid] returned a melting point of 178 °C.

`CCOC(=O)CC(NC(=O)c1cccc(NC(=O)c2cnc(NC(=N)N)s2)c1)c1ccccc1` (racemic) [Example 72, ethyl (RS)-3-{3-[(2-guanidino-thiazole-5-carbonyl)-amino]-benzoylamino}-3-phenyl-propionate] yielded a melting point of 149 °C.

The molecule `Cc1nc(NC(=N)N)sc1C(=O)NCCCCC(CC(=O)O)c1ccccc1` (racemic) [Example 85, (RS)-7-[(2-guanidino-4-methyl-thiazole-5-carbonyl)-amino]-3-phenyl-heptanoic acid] gave a melting point of 125 °C.

In turn, `CCOC(=O)CC(NC(=O)c1cccc(NC(=O)c2csc(NC(=N)N)n2)c1)c1ccccc1` (racemic) [Example 18, ethyl (RS)-3-[3-[(2-guanidino-thiazole-4-carbonyl)-amino]-benzoylamino]-3-phenyl-propionate] displayed a melting point of 117 °C.

`CC(C)(C)OC(=O)C[C@H](NC(=O)CNC(=O)c1csc(NC(=O)NCc2ccccc2)n1)C(=O)OC(C)(C)C` (as salt: succinate) [Example 157, di-tert-butyl (S)-2-(2-{[2-(3-benzyl-ureido)-thiazole-4-carbonyl]-amino}-acetylamino)-succinate] came in with a melting point of 111 to 114 °C.

As to `COC(=O)CCCCCNC(=O)c1csc(NC(=O)NCc2ccccc2)n1` [Example 137, methyl 6-{[2-(3-benzyl-ureido)-thiazole-4-carbonyl]-amino}-hexanoate], the melting point was 140 °C.

On to `O=C(O)C[C@H](NC(=O)CNC(=O)c1csc(NC(=O)NCc2ccccc2)n1)C(=O)Nc1ccccc1C(=O)O` [Example 136, (S)-2-[2-(2-{[2-(3-benzyl-ureido)-thiazole-4-carbonyl]-amino}-acetylamino)-3-carboxy-propionylamino]-benzoic acid], for which the melting point came out at 192 °C.

Regarding `O=C(O)C[C@H](NC(=O)CNC(=O)c1csc(NC(=O)NCc2ccccc2)n1)C(=O)NCc1cccnc1` (as salt: trifluoroacetate) [Example 164, (S)-3-[2-[[2-(3-benzyl-ureido)-thiazole-4-carbonyl]-amino]-acetylamino]-N-pyridin-3-ylmethyl-succinamic acid], the melting point came out at 135 °C.

Regarding `Cl.Cl.O=C(O)CC(NC(=O)CNC(=O)c1csc(N=C2NCCN2)n1)c1cccnc1` (stereo not shown), the melting point was 170 to 172 °C.

`CCOC(=O)CCCC(=O)CNC(=O)c1csc(NC(=O)NCc2ccccc2)n1` [Example 82, ethyl 6-{[2-(3-benzyl-ureido)-thiazole-4-carbonyl]-amino}-5-oxo-hexanoate]: the melting point fell in the range of 135 to 136 °C.

With `CCOC(=O)CC(CC(=O)CNC(=O)c1csc(NC(=O)NCc2ccccc2)n1)C(=O)OCC` (racemic) (as salt: succinate) [Example 155, diethyl rac-2-[3-[[2-(3-benzyl-ureido)-thiazole-4-carbonyl]-amino]-2-oxo-propyl]-succinate], the melting point lay in the range of 126 to 129 °C.

Regarding `CC(C)[C@H](NC(=O)[C@H](CC(=O)O)NC(=O)CNC(=O)c1csc(NC(=O)NCc2ccccc2)n1)C(=O)O` (as salt: trifluoroacetate) [Example 142, (S)-2-[(S)-2-(2-{[2-(3-benzyl-ureido)-thiazole-4-carbonyl]-amino}-acetylamino)-3-carboxy-propionylamino]-3-methyl-butyric acid], the melting point lay within 93 to 98 °C.

In the case of `CCOC(=O)CC(NC(=O)CCNC(=O)c1csc(NC(=N)N)n1)c1ccccc1` (racemic) [Example 24, ethyl rac-3-[3-[(2-guanidino-thiazole-4-carbonyl)-amino]-propionylamino]-3-phenyl-propionate], the melting point was in the range of 85 to 87 °C.

With `O=C(O)CCNC(=O)CNC(=O)c1csc(NC(=O)NCc2ccccc2)n1` (as salt: hydrochloride) [Example 132, 3-[2-[[2-(3-benzyl-ureido)-thiazole-4-carbonyl]-amino]-acetylamino]-propionic acid], the melting point was 174 °C.

On to `N=C(N)Nc1nc(C(=O)NCCCC(CC(=O)O)c2ccccc2)cs1` (racemic) [Example 17, (RS)-6-[(2-guanidino-thiazole-4-carbonyl)-amino]-3-phenyl-hexanoic acid], for which the melting point is 230 °C.

Molecule `CCOC(=O)CC(CCCNC(=O)c1csc(NC(=O)NCc2ccccc2)n1)c1ccccc1` (racemic) [Example 14, ethyl (RS)-6-{[2-(3-benzyl-ureido)-thiazole-4-carbonyl]-amino}-3-phenyl-hexanoate] gave a melting point of 93 °C.

Turning to `CCOC(=O)CC(CCCCNC(=O)c1sc(N=C2NCCCN2)nc1C)c1ccccc1` (racemic) [Example 173, ethyl rac-7-[[4-methyl-2-(tetrahydro-pyrimidin-2-ylideneamino)-thiazole-5-carbonyl]-amino]-3-phenyl-heptanoate], the melting point is 137 to 139 °C.

For the molecule `O=C(O)CCNC(=O)c1cccc(NC(=O)c2csc(NC(=O)NCc3ccccc3)n2)c1` [Example 170, 3-(3-{[2-(3-benzyl-ureido)-thiazole-4-carbonyl]-amino}-benzoylamino)-propionic acid], the melting point is 157 °C.

The molecule `N=C(N)Nc1nc(C(=O)NCC(=O)NC(CC(=O)O)c2ccccc2)cs1` (racemic) (as salt: hydrochloride) [Example 23, rac-3-[2-[(2-guanidino-thiazole-4-carbonyl)-amino]-acetylamino]-3-phenyl-propionic acid] returned a melting point of 202 to 205 °C.

In turn, `CCc1nc(NC(=N)N)sc1-c1cccc(NC(=O)CC(CC(=O)O)c2ccccc2)c1` (racemic) (as salt: salt) [Example 91, rac-4-[3-(4-ethyl-2-guanidino-thiazol-5-yl)-phenylcarbamoyl]-3-phenyl-butyric acid] had a melting point of 186 to 188 °C.

For `CCOC(=O)CC(NC(=O)CNC(=O)c1csc(NC(=N)N)n1)c1ccccc1` (racemic) [Example 22, ethyl rac-3-[2-[(2-guanidino-thiazole-4-carbonyl)-amino]-acetylamino]-3-phenyl-propionate], the melting point is 177 to 178 °C (dec.).

With `COC(=O)[C@H](CCCCNC(=O)c1csc(NC(=O)NCc2ccccc2)n1)NC(=O)OC(C)(C)C` [Example 145, methyl (S)-6-{[2-(3-benzyl-ureido)-thiazole-4-carbonyl]-amino}-2-tert-butoxycarbonylamino-hexanoate], the melting point was determined as 166 °C.

In turn, `CC(C)(C)OC(=O)C[C@H](NC(=O)CNC(=O)c1csc(NC(=O)NCc2ccccn2)n1)C(=O)NCc1ccccn1` [Example 167, tert-butyl (S)-N-pyridin-2-ylmethyl-3-(2-{[2-(3-pyridin-2-ylmethyl-ureido)-thiazole-4-carbonyl]-amino}-acetylamino)-succinamate] gave a melting point of 112 °C.

As for `N=C(N)Nc1nc(C(=O)NCCC(=O)NC(CC(=O)O)c2ccccc2)cs1` (racemic) [Example 25, rac-3-[3-[(2-guanidino-thiazole-4-carbonyl)-amino]-propionylamino]-3-phenyl-propionic acid], the melting point is 105 to 107 °C (dec.).

In the case of `N=C(N)Nc1ncc(C(=O)Nc2cccc(C(=O)NC(CC(=O)O)c3ccccc3)c2)s1` (racemic) [Example 73, (RS)-3-[3-[(2-guanidino-thiazole-5-carbonyl)-amino]-benzoylamino]-3-phenyl-propionic acid], the melting point was found to be 196 °C.

`O=C(O)CCc1ccc(NC(=O)c2csc(NC(=O)NCc3ccccc3)n2)cc1` [Example 154, 3-[4-[[2-(3-benzyl-ureido)-thiazole-4-carbonyl]-amino]-phenyl]-propionic acid] showed a melting point of 233 °C.

Usually melting point stands for the temperature, or range, at which the solid turns liquid.
